According to ChEMBL document CHEMBL1201862, “PubChem BioAssay data set” (2004):
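How tested: cells in 96-well plates exposed to compound for 48 hours at five concentrations. GI50 marks 50% less growth.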 Calls of active or inactive are those of the source. No stated cut-off is given here; in the data, active = GI50 up to about 1.1 µM and inactive = higher.

What was measured:
Experiment in all cases: NCI-60 cell line screen, 48 h
[1] = tested on: ACHN
[2] = tested on: NCI-H460
[3] = tested on: Malme-3M
[4] = tested on: LXFL 529
[5] = tested on: HT-29
[6] = tested on: A498
[7] = tested on: RPMI-8226
[8] = tested on: KM12
[9] = tested on: UACC-62
[10] = tested on: M14
[11] = tested on: A549
[12] = tested on: RXF 631
[13] = tested on: NCI-H23
[14] = tested on: HL-60
[15] = tested on: SN12C
[16] = tested on: NCI-H522
[17] = tested on: SK-MEL-28
[18] = tested on: SF-539
[19] = tested on: SNB-75
[20] = tested on: SW-620
[21] = tested on: LOX IMVI
[22] = tested on: NCI-H226
[23] = tested on: COLO 205
[24] = tested on: HOP-92
[25] = tested on: OVCAR-4
[26] = tested on: DLD-1
[27] = tested on: HCT-15
[28] = tested on: M19-MEL
[29] = tested on: OVCAR-5
[30] = tested on: HCT-116
[31] = tested on: K562
[32] = tested on: DMS-273
[33] = tested on: EKVX
[34] = tested on: CCRF-CEM
[35] = tested on: OVCAR-8
[36] = tested on: SNB-19
[37] = tested on: SK-OV-3
[38] = tested on: HOP-62
[39] = tested on: SF-295
[40] = tested on: HCC 2998
[41] = tested on: TK-10
[42] = tested on: KM-20L2
[43] = tested on: UACC-257
[44] = tested on: RXF 393
[45] = tested on: XF498
[46] = tested on: IGROV-1
[47] = tested on: SK-MEL-5
[48] = tested on: SNB-78
[49] = tested on: 786-0
[50] = tested on: CAKI-1
[51] = tested on: U-251
[52] = tested on: SF-268
[53] = tested on: OVCAR-3
[54] = tested on: DMS-114
[55] = tested on: UO-31

C[N+](C)(C)C1CC([N+](C)(C)C)C2c3ccccc3C21 (stereo not given)
GI50 [1]: > 100 µM (inactive)
GI50 [2]: > 100 µM (inactive)
GI50 [3]: > 100 µM (inactive)
GI50 [4]: > 100 µM (inactive)
GI50 [5]: > 100 µM (inactive)
GI50 [6]: > 100 µM (inactive)
GI50 [7]: > 100 µM (inactive)
GI50 [8]: > 100 µM (inactive)
GI50 [9]: > 100 µM (inactive)
GI50 [10]: > 100 µM (inactive)
GI50 [11]: > 100 µM (inactive)
GI50 [12]: > 100 µM (inactive)
GI50 [13]: > 100 µM (inactive)
GI50 [14]: > 100 µM (inactive)
GI50 [15]: > 100 µM (inactive)
GI50 [16]: > 100 µM (inactive)
GI50 [17]: > 100 µM (inactive)
GI50 [18]: > 100 µM (inactive)
GI50 [19]: > 100 µM (inactive)
GI50 [20]: > 100 µM (inactive)
GI50 [21]: > 100 µM (inactive)
GI50 [22]: > 100 µM (inactive)
GI50 [23]: > 100 µM (inactive)
GI50 [24]: > 100 µM (inactive)
GI50 [25]: > 100 µM (inactive)
GI50 [26]: > 100 µM (inactive)
GI50 [27]: > 100 µM
GI50 [28]: > 100 µM (inactive)
GI50 [29]: > 100 µM (inactive)
GI50 [30]: > 100 µM (inactive)
GI50 [31]: > 100 µM (inactive)
GI50 [32]: > 100 µM (inactive)
GI50 [33]: > 100 µM (inactive)
GI50 [34]: > 100 µM (inactive)
GI50 [35]: > 100 µM (inactive)
GI50 [36]: > 100 µM (inactive)
GI50 [37]: > 100 µM (inactive)
GI50 [38]: > 100 µM (inactive)
GI50 [39]: > 100 µM (inactive)
GI50 [40]: > 100 µM (inactive)
GI50 [41]: > 100 µM (inactive)
GI50 [42]: > 100 µM (inactive)
GI50 [43]: > 100 µM (inactive)
GI50 [44]: > 100 µM (inactive)
GI50 [45]: > 100 µM (inactive)
GI50 [46]: > 100 µM (inactive)
GI50 [47]: > 100 µM (inactive)
GI50 [48]: > 100 µM (inactive)
GI50 [49]: > 100 µM (inactive)
GI50 [50]: > 100 µM (inactive)
GI50 [51]: > 100 µM (inactive)
GI50 [52]: > 100 µM (inactive)
GI50 [53]: > 100 µM (inactive)
GI50 [54]: > 100 µM (inactive)
GI50 [55]: > 100 µM (inactive)
